Experimental data reported in the CheMixHub viscosity set.
Several values for one entry are separate records, joined by “and”; a condition that tells them apart may be missing. Equal values may be shown once.

Experiment: xn = mol fraction of the nth substance listed

CCCCCCC + CCCO
Details | viscosity
293.15 K, 101 kPa, x1 = 0.102 | 1.641 mPa·s
293.15 K, 101 kPa, x1 = 0.2018 | 1.291 mPa·s
293.15 K, 101 kPa, x1 = 0.299 | 1.052 mPa·s
293.15 K, 101 kPa, x1 = 0.4005 | 0.8426 mPa·s
293.15 K, 101 kPa, x1 = 0.5017 | 0.6995 mPa·s
293.15 K, 101 kPa, x1 = 0.6033 | 0.5899 mPa·s
293.15 K, 101 kPa, x1 = 0.7025 | 0.5126 mPa·s
293.15 K, 101 kPa, x1 = 0.801 | 0.4793 mPa·s
293.15 K, 101 kPa, x1 = 0.8918 | 0.4475 mPa·s
298.15 K, 100 kPa, x1 = 0.0569 | 1.654 mPa·s
298.15 K, 100 kPa, x1 = 0.1025 | 1.453 mPa·s
298.15 K, 100 kPa, x1 = 0.1996 | 1.138 mPa·s
298.15 K, 100 kPa, x1 = 0.3052 | 0.9066 mPa·s
298.15 K, 100 kPa, x1 = 0.4045 | 0.75 mPa·s
298.15 K, 100 kPa, x1 = 0.5038 | 0.6265 mPa·s
298.15 K, 100 kPa, x1 = 0.6039 | 0.5366 mPa·s
298.15 K, 100 kPa, x1 = 0.7066 | 0.4713 mPa·s
298.15 K, 100 kPa, x1 = 0.8001 | 0.4307 mPa·s
298.15 K, 100 kPa, x1 = 0.8488 | 0.4168 mPa·s
298.15 K, 100 kPa, x1 = 0.9551 | 0.4008 mPa·s
298.15 K, 100 kPa, x2 = 0.1648 | 0.4406 mPa·s
298.15 K, 100 kPa, x2 = 0.3402 | 0.5464 mPa·s
298.15 K, 100 kPa, x2 = 0.5002 | 0.7014 mPa·s
298.15 K, 100 kPa, x2 = 0.6602 | 0.9498 mPa·s
298.15 K, 100 kPa, x2 = 0.8383 | 1.294 mPa·s
298.15 K, 101 kPa, x1 = 0.0164 | 1.804 mPa·s
298.15 K, 101 kPa, x1 = 0.102 | 1.477 mPa·s
298.15 K, 101 kPa, x1 = 0.2018 | 1.166 mPa·s
298.15 K, 101 kPa, x1 = 0.299 | 0.9499 mPa·s
298.15 K, 101 kPa, x1 = 0.4005 | 0.7687 mPa·s
298.15 K, 101 kPa, x1 = 0.5017 | 0.6453 mPa·s
298.15 K, 101 kPa, x1 = 0.6033 | 0.5511 mPa·s
298.15 K, 101 kPa, x1 = 0.7025 | 0.4886 mPa·s
298.15 K, 101 kPa, x1 = 0.801 | 0.4419 mPa·s
298.15 K, 101 kPa, x1 = 0.8918 | 0.4174 mPa·s
298.15 K, 101 kPa, x2 = 0.0584 | 0.39 mPa·s
298.15 K, 101 kPa, x2 = 0.1192 | 0.408 mPa·s
298.15 K, 101 kPa, x2 = 0.1482 | 0.416 mPa·s
298.15 K, 101 kPa, x2 = 0.2647 | 0.454 mPa·s
298.15 K, 101 kPa, x2 = 0.3436 | 0.489 mPa·s
298.15 K, 101 kPa, x2 = 0.4121 | 0.53 mPa·s
298.15 K, 101 kPa, x2 = 0.5026 | 0.606 mPa·s
298.15 K, 101 kPa, x2 = 0.5659 | 0.679 mPa·s
298.15 K, 101 kPa, x2 = 0.654 | 0.811 mPa·s
298.15 K, 101 kPa, x2 = 0.6877 | 0.872 mPa·s
298.15 K, 101 kPa, x2 = 0.7447 | 0.994 mPa·s
298.15 K, 101 kPa, x2 = 0.8298 | 1.222 mPa·s
298.15 K, 101.33 kPa, x1 = 0.0127 | 1.873 mPa·s
298.15 K, 101.33 kPa, x2 = 0.0468 | 0.393 mPa·s
298.15 K, 101.33 kPa, x2 = 0.0919 | 0.409 mPa·s
298.15 K, 101.33 kPa, x2 = 0.0989 | 0.403 mPa·s
298.15 K, 101.33 kPa, x2 = 0.2079 | 0.4331 mPa·s
298.15 K, 101.33 kPa, x2 = 0.2269 | 0.46 mPa·s
298.15 K, 101.33 kPa, x2 = 0.2621 | 0.454 mPa·s
298.15 K, 101.33 kPa, x2 = 0.34 | 0.52 mPa·s
298.15 K, 101.33 kPa, x2 = 0.362 | 0.4992 mPa·s
298.15 K, 101.33 kPa, x2 = 0.4038 | 0.571 mPa·s
298.15 K, 101.33 kPa, x2 = 0.4569 | 0.576 mPa·s
298.15 K, 101.33 kPa, x2 = 0.521 | 0.682 mPa·s
298.15 K, 101.33 kPa, x2 = 0.5667 | 0.69 mPa·s
298.15 K, 101.33 kPa, x2 = 0.598 | 0.776 mPa·s
298.15 K, 101.33 kPa, x2 = 0.6616 | 0.876 mPa·s
298.15 K, 101.33 kPa, x2 = 0.6636 | 0.832 mPa·s
298.15 K, 101.33 kPa, x2 = 0.7478 | 0.999 mPa·s
298.15 K, 101.33 kPa, x2 = 0.7849 | 1.154 mPa·s
298.15 K, 101.33 kPa, x2 = 0.8202 | 1.187 mPa·s
298.15 K, 101.33 kPa, x2 = 0.879 | 1.447 mPa·s
298.15 K, 101.33 kPa, x2 = 0.9458 | 1.659 mPa·s
298.15 K, 101.33 kPa, x2 = 0.967 | 1.811 mPa·s
303.15 K, 101 kPa, x1 = 0.0164 | 1.609 mPa·s
303.15 K, 101 kPa, x1 = 0.102 | 1.319 mPa·s
303.15 K, 101 kPa, x1 = 0.2018 | 1.047 mPa·s
303.15 K, 101 kPa, x1 = 0.299 | 0.8669 mPa·s
303.15 K, 101 kPa, x1 = 0.4005 | 0.7025 mPa·s
303.15 K, 101 kPa, x1 = 0.5017 | 0.5949 mPa·s
303.15 K, 101 kPa, x1 = 0.6033 | 0.5056 mPa·s
303.15 K, 101 kPa, x1 = 0.7025 | 0.4543 mPa·s
303.15 K, 101 kPa, x1 = 0.801 | 0.4254 mPa·s
303.15 K, 101 kPa, x1 = 0.8918 | 0.3943 mPa·s
303.15 K, 101 kPa, x2 = 0.0637 | 0.364 mPa·s and 0.344 mPa·s
303.15 K, 101 kPa, x2 = 0.1192 | 0.374 mPa·s
303.15 K, 101 kPa, x2 = 0.2374 | 0.415 mPa·s
303.15 K, 101 kPa, x2 = 0.3198 | 0.444 mPa·s
303.15 K, 101 kPa, x2 = 0.4121 | 0.496 mPa·s
303.15 K, 101 kPa, x2 = 0.5026 | 0.569 mPa·s
303.15 K, 101 kPa, x2 = 0.6029 | 0.674 mPa·s
303.15 K, 101 kPa, x2 = 0.6539 | 0.742 mPa·s
303.15 K, 101 kPa, x2 = 0.6876 | 0.785 mPa·s
303.15 K, 101 kPa, x2 = 0.7445 | 0.889 mPa·s
303.15 K, 101 kPa, x2 = 0.7867 | 0.975 mPa·s
303.15 K, 101 kPa, x2 = 0.8298 | 1.096 mPa·s
303.15 K, 101 kPa, x2 = 0.884 | 1.23 mPa·s
303.15 K, 101 kPa, x2 = 0.9695 | 1.544 mPa·s
308.15 K, 101 kPa, x1 = 0.102 | 1.189 mPa·s
308.15 K, 101 kPa, x1 = 0.2018 | 0.9659 mPa·s
308.15 K, 101 kPa, x1 = 0.299 | 0.7776 mPa·s
308.15 K, 101 kPa, x1 = 0.4005 | 0.6444 mPa·s
308.15 K, 101 kPa, x1 = 0.5017 | 0.5454 mPa·s
308.15 K, 101 kPa, x1 = 0.6033 | 0.4781 mPa·s
308.15 K, 101 kPa, x1 = 0.7025 | 0.4308 mPa·s
308.15 K, 101 kPa, x1 = 0.801 | 0.3988 mPa·s
308.15 K, 101 kPa, x1 = 0.8918 | 0.3783 mPa·s
308.15 K, 101 kPa, x2 = 0.1596 | 0.36 mPa·s
308.15 K, 101 kPa, x2 = 0.2647 | 0.399 mPa·s
308.15 K, 101 kPa, x2 = 0.3436 | 0.435 mPa·s
308.15 K, 101 kPa, x2 = 0.4385 | 0.489 mPa·s
308.15 K, 101 kPa, x2 = 0.5026 | 0.532 mPa·s
308.15 K, 101 kPa, x2 = 0.5659 | 0.584 mPa·s
308.15 K, 101 kPa, x2 = 0.6029 | 0.619 mPa·s
308.15 K, 101 kPa, x2 = 0.6877 | 0.728 mPa·s
308.15 K, 101 kPa, x2 = 0.7447 | 0.817 mPa·s
308.15 K, 101 kPa, x2 = 0.7867 | 0.909 mPa·s
308.15 K, 101 kPa, x2 = 0.884 | 1.158 mPa·s
308.15 K, 101 kPa, x2 = 0.9695 | 1.444 mPa·s
308.15 K, 101.33 kPa, x1 = 0.0127 | 1.506 mPa·s
308.15 K, 101.33 kPa, x2 = 0.0468 | 0.3551 mPa·s
308.15 K, 101.33 kPa, x2 = 0.0989 | 0.36 mPa·s
308.15 K, 101.33 kPa, x2 = 0.2079 | 0.3821 mPa·s
308.15 K, 101.33 kPa, x2 = 0.2621 | 0.4018 mPa·s
308.15 K, 101.33 kPa, x2 = 0.362 | 0.4432 mPa·s
308.15 K, 101.33 kPa, x2 = 0.4569 | 0.492 mPa·s
308.15 K, 101.33 kPa, x2 = 0.5667 | 0.5902 mPa·s
308.15 K, 101.33 kPa, x2 = 0.6636 | 0.7 mPa·s
308.15 K, 101.33 kPa, x2 = 0.7478 | 0.8319 mPa·s
308.15 K, 101.33 kPa, x2 = 0.8202 | 0.98 mPa·s
308.15 K, 101.33 kPa, x2 = 0.9458 | 1.347 mPa·s
